Test results reported in patent US10357496B2, “Methods, formulations, and kits for rapidly repleting folate levels in women” (SOUTH ALABAMA MEDICAL SCIENCE FOUNDATION, priority 2011, dated 2019).

Tests used:
[1] = test system: mice homozygous for loss of folate binding protein 1; conditions: 10.75 to 43.0 micromoles/kg/day; untreated mice died in utero; optimal between days E7-E9; cited from earlier work
[2] = cited from earlier work
[3] = Procedure: A study of the rate of increase of serum folate with 5-methyl-6S-tetrahydrofolate (6S-5-MTHF) was performed with women of child bearing age (final range: 20 to 44 years old). Volunteers were screened for fasting serum folate, and the lower quintile enrolled (n=21 participants). On the first day, a baseline fasting blood sample was obtained using a serum separator tube, and then a 7.5 mg (16.3 micromoles) oral dose of 6S-5-MTHF along with 0.5 mg of cyanocobalamin was administered. After 24 hours (day 2) and again after 48 hours (day 3) fasting blood samples were withdrawn, and the same doses of 6S-5-MTHF and vitamin B12 were administered. At 72 hours (day 4) and 96 hours (day 5), further blood samples were withdrawn, but without administration of vitamins for the first 10 Subjects.
These subjects returned on days 12 and 19 to provide serum samples. Compliance was established by counting the excess tablets at the end of the study.
The serum samples were frozen and then initially analyzed for total folate using the Immulite 2000 competitive binding assay, and later by microbiological assay using L. rhamnosus. Serum B12 was determined using the Immulite 2000 assay. This study and the following trials B and C were performed with approval by the Institutional Review Board of the University of South Alabama.

[4] = Trial B; microbiological assay
Procedure: (§1) The 21 volunteers with a value below 25 nM serum folate at screening ranged between 20 to 44 years old.

[5] = Trial B
Procedure: as §1

[6] = cited from earlier work; remark: listed apart in the source
[7] = type: in vivo, women
heart defects = conditions: periconceptional use; cited from earlier work
recurrent NTD = conditions: 4 mg/day; cited from earlier work
NTD = conditions: 400 μg/d, cited from earlier work
cleft lip/palate = conditions: periconceptual administration; cited from earlier work
Trial B: serum B12 = type: in vivo, women
From the text: It is believed that this may be due to uptake of the plasma B12 into the tissues of the deficient or mildly deficient subjects. None the less, by day 12 nearly half of the subjects were still in the normal range.

[8] = Trial A: serum B12 by Immulite 2000 assay; type: in vivo, women; conditions: three daily 0.5 mg doses, by 72 hours, subjects (n=6) with screening values below 330 pg/mL
Procedure: Serum B12 was determined using the Immulite 2000 assay.
The average vitamin B12 levels specifically for those subjects (n=6) with screening values below 330 pg/mL are shown in FIG. 2 (dotted line). By 72 hours after initiation of the three doses, serum B12 increased on average by about 80 pg/mL, and then fell slightly. Levels below 200 pg/mL are considered to be deficient, and those between 200 and 350 pg/mL are generally considered to be low-normal. Data beyond day 5 are not available for this trial, since only one of those with sub-optimal B12 status volunteered to continue.

[9] = after 4 weeks of 800 μg (Brämswig et al.)

Nc1nc2c(c(=O)[nH]1)N(C=O)C(CNc1ccc(C(=O)N[C@@H](CCC(=O)O)C(=O)O)cc1)CN2 (some centres unmarked) [5-formyl-tetrahydrofolate]
survival and malformations of knockout mice [1]: some of these mice survived, but were subject to malformations

CN1c2c(nc(N)[nH]c2=O)NCC1CNc1ccc(C(=O)N[C@@H](CCC(=O)O)C(=O)O)cc1 (some centres unmarked) [5-methyltetrahydrofolate]
time to reach plateau in the plasma ([2]; 400 μg/d, young women): 12 weeks | survival and malformations of knockout mice [1]: some of these mice survived, but were subject to malformations

CN1c2c(nc(N)[nH]c2=O)NC[C@@H]1CNc1ccc(C(=O)N[C@@H](CCC(=O)O)C(=O)O)cc1 [6S-5-MTHF, 5-methyl-6S-tetrahydrofolate]
number of subjects not reaching greater than 37 nM serum total folate by the second day ([3]; Trial A): three | percent of subjects not reaching greater than 37 nM serum total folate by the second day ([3]; Trial A): 15% | total folate of all subjects by the fourth day ([3]; in vivo): above 55 nM | total folate of all subjects by the third day ([3]; in vivo): above 44 nM | total folate: women below 50 nM during the study [4]: only a single person was ever below 50 nM | average serum level maintained over the next two weeks ([5]; 0.8 mg/d 6S-5-MTHF starting on day 4): higher than 66 nM | average serum 5-MTHF, day 5 ([5]; 48 hours after last 7.5 mg dose, 0.8 mg/d maintenance from day 4): 74 nM | average serum 5-MTHF, day 4 ([5]; five 7.5 mg doses every 12 hours, 24 hours after last 7.5 mg dose): 98 nM

Nc1nc2ncc(CNc3ccc(C(=O)N[C@@H](CCC(=O)O)C(=O)O)cc3)nc2c(=O)[nH]1 [folic acid]
average plasma folate level [2, 9]: 50 nM | average red cell folate level [6, 9]: 919 nM | time of treatment to elevate red cell concentrations to 906 nM ([6]; daily dose of 800 μg): 4.2±3.5 weeks | number of subjects below 44 nM total folate by the third day ([7]; Trial C): 9 | number of subjects below 50 nM total folate by the fourth day ([7]; Trial C): 10 | percent of subjects failing to achieve greater than 37 nM serum total folate by the second day ([7]; Trial C): 40% | number of subjects failing to achieve greater than 37 nM serum total folate by the second day ([7]; Trial C, of 20): 8 | highest serum total folate in any measurement, single slow-responding subject ([7]; female, human, in vivo): ≤ 32 nM | decrease in the prevalence of heart defects (heart defects): 20% | recurrent NTD prevented compared to the control group (recurrent NTD): 72% | NTD cases after treatment, southern region (NTD; 10 per 10,000 births before intervention): 6 per 10,000 | NTD cases after treatment, northern region (NTD; 48 per 10,000 births before intervention): 10 per 10,000 | reduction in recurrence of orofacial clefts (meta-analysis) (cleft lip/palate): two thirds

cyanocobalamin
rate of increase of serum B12 (Trial B: serum B12; Trial B three daily 1.0 mg doses versus Trial A 0.5 mg doses): considerably greater than observed with the 0.5 mg doses | subjects with serum B12 still in the normal range by day 12 (Trial B: serum B12; Trial B, after three daily 1.0 mg doses): nearly half | half life of fall of serum B12 after discontinuation (Trial B: serum B12; Trial B, after three daily 1.0 mg doses, approximate exponential): about 2% | subjects with serum B12 in the normal range by day 4 (Trial B: serum B12; Trial B, three daily 1.0 mg doses): 88% | average increase of serum B12 [8]: about 80 pg/mL
